The values that follow come from patent publication US20230280333A1, “FOREIGN SUBSTANCE INTRODUCTION CONSTRUCT AND USE THEREOF” (TOAGOSEI CO., LTD., priority 2022, published 2023).

Where no end group is shown, it is not given here.

One assay relates to HeLa cells. In words: Evaluation of the cell membrane permeability by flow cytometry. The class given is cell-based, human. To be noted: for cell membrane permeability, conclusion in words / MFI compared between examples, in words: HeLa cells, 10 μM, 20 hours; for cell membrane permeability, conclusion in words: FAM-labelled constructs; for MFI: mean fluorescent intensity of HeLa cells, 10 μM in culture medium, 0.5% DMSO, 20 hours at 37° C., FL2 detector. On the procedure:
The cell membrane permeability of peptides 1 to 4 was analyzed using HeLa cells (an established cell line derived from human cervical cancer cells) as the eukaryotic cells.
HeLa cells were cultured on DMEM (Dulbecco's modified Eagle's medium (Cat. No. 043-30085, from FUJIFILM Wako Pure Chemical Corporation)) containing 10% FBS (fetal bovine serum), which is a general culture medium.
The HeLa cells attached to the culture plate were washed with PBS, a 0.25% trypsin/EDTA solution was then added, and incubation was carried out for 3 minutes at 37° C. After this incubation, the aforementioned DMEM containing 10% FBS was added and the trypsin was inactivated, and the cells were then sedimented by carrying out centrifugal separation for 5 minutes at 150×g. The supernatant produced by the centrifugal separation was removed, and the aforementioned DMEM containing 10% FBS was added to the sediment (cell pellet) to prepare a cell suspension containing approximately 2×10^5 cells/mL. The cells were seeded (approximately 2×10^5 cells/well) by the addition of 1 mL of this cell suspension to the wells of a commercial 6-well plate (Iwaki). In addition, the 2 mM sample solution 1 was diluted with the aforementioned DMEM containing 10% FBS to prepare a sample solution 1 in which the sample 1 concentration was 20 μM. 1 mL of this 20 sample solution 1 was added to a well (i.e., the concentration of sample 1 in the culture medium in the wells was brought to 10 μM and the DMSO concentration was brought to 0.5%). The cells were subsequently incubated for 20 hours at 37° C. under the condition of 5% CO2.
After this 20-hour incubation, the culture supernatant was removed from a well and the cells in the well were washed twice with 1 mL PBS. 200 μL of a 0.25% trypsin/EDTA solution was then added to the well and incubation was carried out for 3 minutes at 37° C. After this incubation, the trypsin was inactivated by the addition of 400 μL of the aforementioned DMEM containing 10% FBS to the well, and the cells were subsequently recovered by transferring the cell suspension in a well to a tube. The well was then washed by the further addition of 600 μL PBS to the well. The cells that had remained in the well were recovered to the tube by transferring the PBS in the well to the tube. Centrifugal separation was run on this tube for 5 minutes using conditions of 4° C. and 210×g. After the centrifugal separation, the supernatant was removed, the sediment (cell pellet) was suspended (washed) with 1 mL of PBS, and centrifugal separation was carried out using the same conditions as before. After this procedure had been performed twice, the supernatant was removed to obtain cells (cell pellet) that had been cultured on a sample 1-containing culture medium.
The cell permeability of sample 1 was analyzed using the resulting cells (cell pellet) and a flow cytometer. An On-Chip Flow Cytometer (On-chip Biotechnologies Co., Ltd.) was used for the flow cytometer.
For this analysis, the cell pellet obtained as described above was suspended in 50 μL PBS. To this suspension was added 50 μL of Sample Buffer 2× for use with the indicated flow cytometer to prepare a cell suspension for submission to analysis.
Gating was performed using this flow cytometer based on forward scatter (FSC) and side scatter (SSC); the gating was set for the cell population that was the target of the analysis; and the fluorescent intensity was measured for the cell population within this gating. The analysis was performed so the cell count for this cell population reached at least 10,000 or more. The FL2 fluorescence detector (optimal detection wavelength around 543 nm) on the indicated flow cytometer, which could detect the fluorescence wavelength of FAM, was used to measure the fluorescent intensity. […]

The subject of another assay is nucleolus. In words: Nucleolar transferability stated in the description, no method shown. The format is cell-based.
Assay [1] relates to cell membrane of eukaryotic cells. In words: Cell membrane permeability stated by the inventors, no data or method shown. As to conditions: detailed data not provided. The format is cell-based.

“KKRTLRKKKRKKRWPC (Ac-KKRTLRKKKRKKRWPC) [Peptide 2, carrier peptide fragment; synthesized with N-terminal α-amino group acetylated]”: in the assay on HeLa cells (listed as SEQ ID NO: 2), the “cell membrane permeability, conclusion in words” value is listed as “better cell membrane permeability than peptide composed of the amino acid sequence given by SEQ ID NO: 5”.
Take “Ac-KKRTLRKSNRKKRWPC-FAM (Ac-KKRTLRKSNRKKRWPC-{FAM}) [Example 1, foreign substance introduction construct provided with peptide 1, FAM bonded to the C-terminal side]”: in the assay with HeLa cells, the “MFI compared between examples, in words” value is “highest among Example 1, Example 3, and Example 3′”; the MFI came to 87.5.
Regarding FAM-KKRTLRKSNRKKR-CONH2 [Example 3′], the MFI with HeLa cells came to 62.
As for “5(6)-carboxyfluorescein [Example 5, reference compound]”, the MFI in the assay with HeLa cells came to 10.3.
Take “KKRTLRKKKRKKR (Ac-KKRTLRKKKRKKR) [Peptide 4, variant of LIM kinase 2 NoLS; synthesized with N-terminal acetylation]”: the “nucleolar transferability, in words” value with nucleolus is given as “excellent nucleolar transferability”. Further, the “cell membrane permeability, statement in words” value in assay [1] was “higher cell membrane permeability than peptide comprising the amino acid sequence given by SEQ ID NO: 3”.
Regarding Ac-KKRTLRKKKRKKR-FAM [Example 4], the MFI in the assay with HeLa cells is reported as 24.3.
As for “KKRTLRKSNRKKR (Ac-KKRTLRKSNRKKR) [Peptide 3, variant of LIM kinase 2 NoLS; synthesized with N-terminal acetylation]”, the “cell membrane permeability, statement in words” value in assay [1] was “higher cell membrane permeability than peptide comprising the amino acid sequence given by SEQ ID NO: 3”.
With “Ac-KKRTLRKKKRKKRWPC-FAM (Ac-KKRTLRKKKRKKRWPC-{FAM}) [Example 2, foreign substance introduction construct provided with peptide 2, FAM bonded to the C-terminal side]”, in the assay on HeLa cells, the “MFI compared between examples, in words” value was “significantly higher MFI than Example 4” and the MFI amounted to 121.
On to Ac-KKRTLRKSNRKKR-FAM [Example 3], for which, in the assay on HeLa cells, the MFI worked out at 12.4.
For “KKRTLRKSNRKKRWPC (Ac-KKRTLRKSNRKKRWPC) [Peptide 1, carrier peptide fragment; synthesized with N-terminal α-amino group acetylated]”, the “cell membrane permeability, conclusion in words” value in the assay with HeLa cells (listed as SEQ ID NO: 1) is reported as “better cell membrane permeability than peptide composed of the amino acid sequence given by SEQ ID NO: 4”.
